US20030004172A1, “Fused pyrimidinone matrix metalloproteinase inhibitors” (priority 2001, published 2003)
Read-outs that look alike come from different tables or passages of the source.

Biological target: MMP-13CD (catalytic domain of collagenase-3) (Homo sapiens, UniProt P45452)
Experiment: Thiopeptolide substrate hydrolysis inhibition assay, MMP-13CD
Assay type: biochemical
Excerpt: Thiopeptolide substrates show virtually no decomposition or hydrolysis at or below neutral pH in the absence of a matrix metalloproteinase enzyme.

[1] = Table I, thiopeptolide substrate, HEPES pH 7.0, 22° C., read-out: MMP-13CD IC50

IC50 [1] [nM] | IC50 (Table II, micromolar concentration, HEPES pH 7.0, read-out: IC50 MMP-13CD) [nM] | Compound
8000 | – | 3-(4-Carboxy-benzyl)-1-methyl-2,4-dioxo-1,2,3,4-tetrahydro-thieno[2,3-d]pyrimidine-6-carboxylic acid 2-ethoxy-benzyl ester [Example 319]
> 100000 | – | CC(=O)c1ccc(-n2c(=O)[nH]c3sc(C(=O)OCc4ccccc4)c(C)c3c2=O)cc1 [Example 6, 3-(4-Acetyl-phenyl)-5-methyl-2,4 dioxo-1,2,3,4-tetrahydro-thieno[2,3-d]-pyrimidine-6-carboxylic acid benzyl ester]
15000 | – | Cc1c(C(=O)OCc2ccccc2)sc2[nH]c(=O)n(-c3ccc([N+](=O)[O-])cc3)c(=O)c12 [Example 8, 5-Methyl-3-(4-nitro-phenyl)-2,4-dioxo-1,2,3,4-tetrahydro-thieno[2,3-d]-6-carboxylic acid benzyl ester]
68 | – | O=C(OCc1ccc2c(c1)OCO2)c1cc2c(=O)n(Cc3ccccc3)c(=O)[nH]c2s1 [Example 10, 3-Benzyl-2,4-dioxo-1,2,3,4-tetrahydro-thieno[2,3-d]pyrimidine-6-carboxylic acid 1,3-benzodioxol-5-ylmethyl ester]
470 | – | Cn1c(=O)n(Cc2ccccc2)c(=O)c2cc(C(=O)NCc3ccccc3)sc21 [Example 11, 3-Benzyl-1-methyl-2,4-dioxo-1,2,3,4-tetrahydro-thieno[2,3-d]pyrimidine-6-carboxylic acid benzyl amide]
> 100000 | – | O=C(OCCc1ccccc1)c1cc2c(=O)n(Cc3ccccc3)c(=O)[nH]c2s1 [Example 12, 3-Benzyl-2,4-dioxo-1,2,3,4-tetrahydro-thieno[2,3-d]pyrimidine-6-carboxylic acid 2-phenylethyl ester]
18000 | – | O=C(OCc1ccoc1)c1cc2c(=O)n(Cc3ccccc3)c(=O)[nH]c2s1 [Example 13, 3-Benzyl-2,4-dioxo-1,2,3,4-tetrahydro-thieno[2,3-d]pyrimidine-6-carboxylic acid furan-3-ylmethyl ester]
– | 6.5 | C=Cc1ccc(Cn2c(=O)c3cc(C(=O)OCc4ccccc4)sc3n(C)c2=O)cc1 [Example 20, 1-Methyl-2,4-dioxo-3-(4-vinyl-benzyl)-1,2,3,4-tetrahydro-thieno[2,3-d]pyrimidine-6-carboxylic acid benzyl ester]
1450 | – | Cn1c(=O)n(Cc2ccccc2)c(=O)c2cc(C(=O)OCc3cc4ccccc4o3)sc21 [Example 48, 3-Benzyl-1-methyl-2,4-dioxo-1,2,3,4-tetrahydro-thieno[2,3-d]pyrimidine-6-carboxylic acid benzofuran-2-ylmethyl ester]
87.5 | – | COc1ccc(COC(=O)c2cc3c(=O)n(Cc4ccccc4)c(=O)[nH]c3s2)cc1 [Example 50, 3-Benzyl-2,4-dioxo-1,2,3,4-tetrahydro-thieno[2,3-d]pyrimidine-6-carboxylic acid 4-methoxy-benzyl ester]
3.95 | – | COc1ccc(CNC(=O)c2cc3c(=O)n(Cc4ccc(C(=O)O)cc4)c(=O)n(C)c3s2)cc1 [Example 52, 4-[6-(4-Methoxy-benzylcarbamoyl)-1-methyl-2,4-dioxo-1,4-dihydro-2H-thieno[2,3-d]pyrimidin-3-ylmethyl]-benzoic acid]
30000 | – | COc1ccc(CNC(=O)c2cc3c(=O)n(Cc4ccc(C(=O)OC(C)(C)C)cc4)c(=O)n(C)c3s2)cc1OC [Example 53, 4-[6-(3,4-Dimethoxy-benzylcarbamoyl)-1-methyl-2,4-dioxo-1,4-dihydro-2H-thieno[2,3-d]pyrimidin-3-ylmethyl]-benzoic acid tert-butyl ester]
4500 | – | COc1ccc(CNC(=O)c2cc3c(=O)n(Cc4ccc(C(=O)O)cc4)c(=O)n(C)c3s2)cc1OC [Example 54, 4-[6-(3,4-Dimethoxy-benzylcarbamoyl)-1-methyl-2,4-dioxo-1,4-dihydro-2H-thieno[2,3-d]pyrimidin-3-ylmethyl]-benzoic acid]
11 | – | Cn1c(=O)n(Cc2ccc(C(=O)O)cc2)c(=O)c2cc(C(=O)NCc3ccc(Br)cc3)sc21 [Example 55, 4-[6-(4-Bromo-benzylcarbamoyl)-1-methyl-2,4-dioxo-1,4-dihydro-2H-thieno[2,3-d]pyrimidin-3-ylmethyl]-benzoic acid]
30000 | – | Cn1c(=O)n(Cc2ccc(C(=O)OC(C)(C)C)cc2)c(=O)c2cc(C(=O)NCc3ccc(Br)cc3)sc21 [Example 56, 4-[6-(4-Bromo-benzylcarbamoyl)-1-methyl-2,4-dioxo-1,4-dihydro-2H-thieno[2,3-d]pyrimidin-3-ylmethyl]-benzoic acid tert-butyl ester]
5600 | – | Cn1c(=O)n(Cc2ccc(C(=O)O)cc2)c(=O)c2cc(C(=O)NCc3cc(C(F)(F)F)cc(C(F)(F)F)c3)sc21 [Example 57, 4-[6-(3,5-Bis-trifluoromethyl-benzylcarbamoyl)-1-methyl-2,4-dioxo-1,4-dihydro-2H-thieno[2,3-d]pyrimidin-3-ylmethyl]-benzoic acid]
11.5 | – | Cn1c(=O)n(Cc2ccc(C(=O)O)cc2)c(=O)c2cc(C(=O)NCc3ccc(Cl)cc3)sc21 [Example 58, 4-[6-(4-Chloro-benzylcarbamoyl)-1-methyl-2,4-dioxo-1,4-dihydro-2H-thieno[2,3-d]pyrimidin-3-ylmethyl]-benzoic acid]
2000 | – | Cn1c(=O)n(Cc2ccc(C(=O)O)cc2)c(=O)c2cc(C(=O)NCc3ccc(S(N)(=O)=O)cc3)sc21 [Example 59, 4-[1-Methyl-2,4-dioxo-6-(4-sulfamoyl-benzylcarbamoyl)-1,4-dihydro-2H-thieno[2,3-d]pyrimidin-3-ylmethyl]-benzoic acid]
160 | – | COc1ccc(CNC(=O)c2cc3c(=O)n(Cc4ccc(F)cc4)c(=O)n(C)c3s2)cc1 [Example 60, 3-(4-Fluoro-benzyl)-1-methyl-2,4-dioxo-1,2,3,4-tetrahydro-thieno[2,3-d]pyrimidine-6-carboxylic acid 4-methoxy-benzylamide]
45 | – | COc1cccc(CNC(=O)c2cc3c(=O)n(Cc4ccc(I)cc4)c(=O)n(C)c3s2)c1 [Example 61, 3-(4-Iodo-benzyl)-1-methyl-2,4-dioxo-1,2,3,4-tetrahydro-thieno[2,3-d]pyrimidine-6-carboxylic acid 3-methoxy-benzylamide]
53.5 | – | COc1ccc(CNC(=O)c2cc3c(=O)n(Cc4ccc(S(=O)(=O)N(C)C)cc4)c(=O)n(C)c3s2)cc1 [Example 62, 3-(4-Dimethylsulfamoyl-benzyl)-1-methyl-2,4-dioxo-1,2,3,4-tetrahydro-thieno[2,3-d]pyrimidine-6-carboxylic acid 4-methoxy-benzylamide]
62 | – | COc1ccc(CNC(=O)c2cc3c(=O)n(Cc4ccc(C#N)cc4)c(=O)n(C)c3s2)cc1 [Example 64, 3-(4-Cyano-benzyl)-1-methyl-2,4-dioxo-1,2,3,4-tetrahydro-thieno[2,3-d]pyrimidine-6-carboxylic acid 4-methoxy-benzylamide]
53.5 | – | COc1cccc(CNC(=O)c2cc3c(=O)n(Cc4ccc(NC(C)=O)cc4)c(=O)n(C)c3s2)c1 [Example 65, 3-(4-Acetylamino-benzyl)-1-methyl-2,4-dioxo-1,2,3,4-tetrahydro-thieno[2,3-d]pyrimidine-6-carboxylic acid 3-methoxy-benzylamide]
1050 | – | CCOC(=O)c1ccc(Cn2c(=O)c3cc(C(=O)NCc4cccc(OC)c4)sc3n(C)c2=O)o1 [Example 65a, 5-[6-(3-Methoxy-benzylcarbamoyl)-1-methyl-2,4-dioxo-1,4-dihydro-2H-thieno[2,3-d]pyrimidin-3-ylmethyl]-furan-2-carboxylic acid ethyl ester]
27.5 | – | COc1cccc(COC(=O)c2cc3c(=O)n(Cc4ccc(C#N)cc4)c(=O)[nH]c3s2)c1 [Example 66, 3-(4-Cyano-benzyl)-2,4-dioxo-1,2,3,4-tetrahydro-thieno[2,3-d]pyrimidine-6-carboxylic acid 3-methoxy-benzyl ester]
1.68 | – | COc1cccc(COC(=O)c2cc3c(=O)n(Cc4ccc(-c5nn[nH]n5)cc4)c(=O)[nH]c3s2)c1 [Example 67, 2,4-Dioxo-3-[4-(2H-tetrazol-4-yl)-benzyl]-1,2,3,4-tetrahydro-thieno[2,3-d]pyrimidine-6-carboxylic acid 3-methoxy-benzyl ester]
63.5 | – | COc1cccc(CNC(=O)c2cc3c(=O)n(Cc4ccc(C(=O)OCCN(C)C)cc4)c(=O)n(C)c3s2)c1 [Example 68, 4-[6-(3-Methoxy-benzylcarbamoyl)-1-methyl-2,4-dioxo-1,4-dihydro-2H-thieno[2,3-d]pyrimidin-3-ylmethyl]-benzoic acid 2-dimethylamino-ethyl ester]
57 | – | COc1cccc(CNC(=O)c2cc3c(=O)n(CC4CCCCC4)c(=O)n(C)c3s2)c1 [Example 69, 3-Cylcohexylmethyl-1-methyl-2,4-dioxo-1,2,3,4-tetrahydro-thieno[2,3-d]pyrimidine-6-carboxylic acid-3methoxy-benzylamide]

Compound | IC50 [1] [nM] | IC50 (Table II, micromolar concentration, HEPES pH 7.0, read-out: IC50 MMP-13CD) [nM]
3-(4-Methoxycarboxyl-butyl)-1-methyl-2,4-dioxo-1,2,3,4-tetrahydro-thieno[2,3-d]pyrimidine-6-carboxylic acid benzyl ester [Example 141] | 150 | –
3-Benzyl-1-methyl-2,4-dioxo-1,2,3,4-tetrahydro-thieno[2,3-d]pyrimidine-6-carboxylic acid 2,2,2-trifluoro-1-trifluoromethyl-ethyl ester [Example 168] | 25000 | –
3-Benzyl-1-methyl-2,4-dioxo-1,2,3,4-tetrahydro-thieno[2,3-d]pyrimidine-6-carboxylic acid ((S)-2,2-dimethyl-4-phenyl-1,3-dioxinan-5-yl)-amide [Example 341] | 14000 | –
Cn1c(=O)n(Cc2ccc(C(=O)O)cc2)c(=O)c2cc(C(=O)NCc3ccncc3)sc21 [Example 51, 4-{1-Methyl-2,4-dioxo-6-[(pyridin-4-ylmethyl)-carbamoyl]-1,4-dihydro-2H-thieno[2,3-d]pyrimidin-3-ylmethyl}-benzoic acid; compound with trifluoro-acetic acid] | 20.5 | –
